These results are taken from patent US8791144B2, “Substituted N-phenyl-1-(4-Pyridinyl)-1H-pyrazol-3-amines” (Janssen Pharmaceutica NV, priority 2009, dated 2014).

In data set [1] the target is T1, hα7-wt nAChR (Homo sapiens, UniProt P36544). Briefly: Ca2+ flux imaging (FDSS): potentiation of the choline response. To be noted: Ca2+ assay as described in D.1, potentiation of choline response, hα7-wt nAChR; for EC50: read-out: Potency (pEC50) (converted). The data set is classed as cell-based. In short, it runs like this:
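Cells expressing human α7-wt nAChR loaded with fluo-4AM (2 μM final) up to 120 min; HBSS/10 mM HEPES/5 mM CaCl2/0.1% BSA buffer. Compound (0.01–30 μM) applied up to 10 min before 100 μM choline; peak fluorescence measured on FDSS relative to choline alone (100%). EC50 from sigmoidal curves.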
On the technique in general: Calcium assays in cells follow changes in intracellular calcium, usually with a dye or a luminescent sensor.

Data set [2] has as its target T1, hα7-wt nAChR. Briefly: Patch-clamp current recording (whole-cell voltage clamp), potentiation of choline current and PAM type. Particulars: hα7-wt nAChR-expressing GH4C1 cells, 1 mM choline. The class given is cell-based. Further details: key: Type 0 compounds minimally enhance the effect size of the current elicited by 1 mM choline.; Type 1 compounds enhance the effect size of the current elicited by 1 mM choline but minimally alter the kinetics of the receptor.; Type 2 compounds enhance the effect size of the current elicited by 1 mM choline while reducing the rate and/or the extent of desensitization.; Type 3 compounds enhance the effect size of the current elicited by 1 mM choline. When tested at higher concentrations up to 10 μM they completely inhibit desensitization, in particular a 1 mM choline application of 250 milliseconds.; Type 4 compounds allow for an initial desensitization of the receptor followed by a re-opening of the receptor during agonist application. As for the experimental part: The compounds of the present invention are classified as type 0-4, based on qualitative kinetic properties, as determined by whole-cell voltage-clamp recordings. This classification is based on the effect of an α7 PAM compound, as described hereinbefore, on the signal elicited by an agonist application. In particular, said agonist is choline at a concentration of 1 mM. In a preferred experimental setting, said α7 PAM compound and choline are simultaneously applied to the cell, as described hereinafter. Desensitization is defined as the closure of the receptor upon activation during the application of the agonist in whole-cell voltage-clamp electrophysiology measurements seen as the reduction of the […] current after initial activation by the agonist.
The definition of the PAM types 0-4 is described hereinafter: • Type 0 compounds minimally enhance the effect size of the current elicited by 1 mM choline. • Type 1 compounds enhance the effect size of the current elicited by 1 mM choline but minimally alter the kinetics of the receptor. In particular, the rate and the extent of desensitization, elicited by the agonist, is not affected. The compound-modulated response to 1 mM choline, therefore, is a close to linear scaling of the 1 mM choline response in absence of the α7 PAM compound. • Type 2 compounds enhance the effect size of the current elicited by 1 mM choline while reducing the rate and/or the extent of desensitization. • Type 3 compounds enhance the effect size of the current elicited by 1 mM choline. […] At low-potency concentrations of the α7 PAM compound, the agonist-induced activation, which is followed by desensitization, can still be separated from the compound-induced re-opening as an initial inward current-maximum. At higher potency concentrations of the α7 PAM compound, the re-opening occurs faster than the closure due to desensitization so that the initial current-maximum disappears.
A compound was considered to have interesting PAM-like activity when the potentiation of the peak current was at least 200% compared to the control choline response (=100%). Such compounds are classified as belonging to a particular PAM type in the Experimental Part. Compounds not meeting the condition are not classified as belonging to a particular PAM-type.
The compounds also have a potentiating effect on the response to choline when measured by whole-cell patch clamp electrophysiology in GH4C1 cells stably over-expressing the human wild-type α7 receptor.
Patch-clamp recording from mammalian cells has provided a powerful means of assessing the function of membrane-bound proteins thought to be subunits of ligand-gated ion channels. Activation of such proteins by endogenous or exogenous ligands cause opening of a pore associated with the receptor through which ions flow down their electrochemical gradient. In the case of the hα7-wt nAChR-expressing GH4C1 recombinant cell line the preferential permeability to calcium of this receptor means that calcium flows into the cell upon activation by ACh, choline and other nicotinic ligands giving rise to a calcium current. Since this receptor rapidly desensitizes in the presence of agonist it is important an application system is used which is capable of very rapid switching of solutions (<100 ms) to prevent partial or full desensitisation of receptor responses coincident with the time of agonist application. Consequently, a second convenient technique to assess the enhancement of nicotinic efficacy is patch-clamp recording from hα7-wt nAChR-expressing GH4C1 cells coupled with a rapid-application system.
• a) Assay Buffers • The external recording solution consisted of 152 mM NaCl, 5 mM KCl, 1 mM MgCl2, 1 mM Calcium, 10 mM HEPES; pH 7.3. […]
In general terms: The patch-clamp technique gives a direct electrical read-out from membranes.

Broadly, the melting point is the temperature, or range, at which the solid turns liquid.

Each structure is given as a SMILES string.

T1 sequence (P36544 23-502): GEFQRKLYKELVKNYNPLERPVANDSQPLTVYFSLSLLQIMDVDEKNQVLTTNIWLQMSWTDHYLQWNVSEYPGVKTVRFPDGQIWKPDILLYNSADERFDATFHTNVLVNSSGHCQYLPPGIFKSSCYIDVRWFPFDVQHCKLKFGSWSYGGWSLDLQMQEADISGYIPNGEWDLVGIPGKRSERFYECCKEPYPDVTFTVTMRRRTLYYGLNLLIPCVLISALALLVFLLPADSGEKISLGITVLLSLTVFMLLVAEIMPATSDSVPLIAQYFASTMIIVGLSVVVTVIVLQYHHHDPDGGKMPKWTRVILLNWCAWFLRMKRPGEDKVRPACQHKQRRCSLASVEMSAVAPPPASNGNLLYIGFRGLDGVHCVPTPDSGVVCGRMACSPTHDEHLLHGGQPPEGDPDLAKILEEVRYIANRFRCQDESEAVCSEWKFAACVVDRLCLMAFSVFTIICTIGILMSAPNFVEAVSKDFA

`CCNC(=O)Cc1cc(Nc2ccc(F)c(F)c2)nn1-c1ccnc(C)c1` [Compound 28, 3-[(3,4-difluorophenyl)amino]-N-ethyl-1-(2-methyl-4-pyridinyl)-1H-pyrazole-5-acetamide] came in with a melting point of 242.4 °C. Further, the EC50 on hα7-wt nAChR [1] is 2510 nM. Besides, the PAM type at hα7-wt nAChR [2] is listed as 2.

The compound `CC[C@H](O)Cc1cc(Nc2cccc(Cl)c2F)nn1-c1ccnc(C)c1` [Compound 58, (alphaS)-3-[(3-chloro-2-fluorophenyl)amino]-alpha-ethyl-1-(2-methyl-4-pyridinyl)-1H-pyrazole-5-ethanol] came in with a melting point of 168.2 °C. Further, on hα7-wt nAChR [1], the EC50 is 2510 nM. Moreover, the PAM type on hα7-wt nAChR [2] came to 1.

For the compound `CC[C@H](O)Cc1cc(Nc2ccc(OC)c(C(F)(F)F)c2)nn1-c1ccnc(C)c1` [Compound 38, (alphaS)-alpha-ethyl-3-[[4-methoxy-3-(trifluoromethyl)phenyl]amino]-1-(2-methyl-4-pyridinyl)-1H-pyrazole-5-ethanol], the melting point amounted to 129 °C. Also, the EC50 at hα7-wt nAChR [1] was 1320 nM. For the same compound, the PAM type at hα7-wt nAChR [2] was found to be 2.

As to `Cc1cc(-n2nc(Nc3cccc(Cl)c3F)cc2CC(=O)NC2CCC2)ccn1` [Compound 82, 3-[(3-chloro-2-fluorophenyl)amino]-N-cyclobutyl-1-(2-methyl-4-pyridinyl)-1H-pyrazole-5-acetamide], the melting point amounted to 223.2 °C. For the same compound, on hα7-wt nAChR [1], the EC50 was 490 nM. Besides, at hα7-wt nAChR [2], the PAM type worked out at 2.

In turn, `CC[C@H](O)Cc1cc(Nc2cccc(C(F)(F)F)c2)nn1-c1ccnc(C)c1` [Compound 37, (alphaS)-alpha-ethyl-1-(2-methyl-4-pyridinyl)-3-[[3-(trifluoromethyl)phenyl]amino]-1H-pyrazole-5-ethanol] had a melting point of 169.5 °C. In addition, the EC50 on hα7-wt nAChR [1] is 2290 nM. Moreover, the PAM type on hα7-wt nAChR [2] stood at 2.

`CCNC(=O)Cc1cc(Nc2ccc3c(c2)OC(F)(F)O3)nn1-c1ccnc(C)c1` [Compound 98, 3-[(2,2-difluoro-1,3-benzodioxol-5-yl)amino]-N-ethyl-1-(2-methyl-4-pyridinyl)-1H-pyrazole-5-acetamide] yielded a melting point of 239.2 °C. In addition, the EC50 on hα7-wt nAChR [1] was 1200 nM. The PAM type at hα7-wt nAChR [2] amounted to 2.

Regarding `COc1cc(Cl)cc(Nc2cc(CC(=O)NCC3CC3)n(-c3ccnc(C)c3)n2)c1` [Compound 81, 3-[(3-chloro-5-methoxyphenyl)amino]-N-(cyclopropylmethyl)-1-(2-methyl-4-pyridinyl)-1H-pyrazole-5-acetamide], the melting point is 248.7 °C. The EC50 on hα7-wt nAChR [1] was 148 nM. The PAM type on hα7-wt nAChR [2] turned out to be 0.

In turn, `Cc1cc(-n2nc(Nc3cccc(Cl)c3F)cc2CC(=O)NC2CC2)cc(C)n1` [Compound 78, 3-[(3-chloro-2-fluorophenyl)amino]-N-cyclopropyl-1-(2,6-dimethyl-4-pyridinyl)-1H-pyrazole-5-acetamide] registered a melting point of 222.9 °C. For the same compound, at hα7-wt nAChR [1], the EC50 is 407 nM. Also, the PAM type at hα7-wt nAChR [2] turned out to be 2.

Turning to `Cc1cc(-n2nc(Nc3cccc(OC(F)(F)F)c3)cc2CC(=O)NC2CCC2)ccn1` [Compound 121, N-cyclobutyl-1-(2-methyl-4-pyridinyl)-3-[[3-(trifluoromethoxy)phenyl]amino]-1H-pyrazole-5-acetamide], the melting point amounted to 227.7 °C. Also, on hα7-wt nAChR [1], the EC50 was 417 nM. Besides, at hα7-wt nAChR [2], the PAM type was 2.

With `CCNC(=O)Cc1cc(Nc2cccc(OC(F)(F)F)c2)nn1-c1cc(C)nc(C)c1` [Compound 114, 1-(2,6-dimethyl-4-pyridinyl)-N-ethyl-3-[[3-(trifluoromethoxy)phenyl]amino]-1H-pyrazole-5-acetamide], the melting point was determined as 224.2 °C. Besides, the EC50 at hα7-wt nAChR [1] was 309 nM. The PAM type on hα7-wt nAChR [2] was 2.

Turning to `Cc1cc(-n2nc(Nc3cccc(Cl)c3F)cc2CC(=O)NCC2CC2)ccn1` [Compound 79, 3-[(3-chloro-2-fluorophenyl)amino]-N-(cyclopropylmethyl)-1-(2-methyl-4-pyridinyl)-1H-pyrazole-5-acetamide], the melting point stood at 220.5 °C. Further, the EC50 on hα7-wt nAChR [1] was 302 nM. Moreover, at hα7-wt nAChR [2], the PAM type worked out at 4.

Compound `CC[C@H](O)Cc1cc(Nc2cccc(OC(F)(F)F)c2)nn1-c1ccnc(C)c1` [Compound 106, (alphaS)-alpha-ethyl-1-(2-methyl-4-pyridinyl)-3-[[3-(trifluoromethoxy)phenyl]amino]-1H-pyrazole-5-ethanol] registered a melting point of 147.3 °C. Further, the EC50 on hα7-wt nAChR [1] is 1820 nM. Moreover, the PAM type at hα7-wt nAChR [2] amounted to 2.

`CCNC(=O)Cc1cc(Nc2cc(Cl)cc(OC)c2)nn1-c1ccnc(C)c1` [Compound 74, 3-[(3-chloro-5-methoxyphenyl)amino]-N-ethyl-1-(2-methyl-4-pyridinyl)-1H-pyrazole-5-acetamide] showed a melting point of 224 °C. In addition, the EC50 at hα7-wt nAChR [1] is 776 nM. In addition, at hα7-wt nAChR [2], the PAM type is recorded as 4.

`Cc1cc(-n2nc(Nc3ccc4c(c3)OC(F)(F)O4)cc2CC(=O)NC2CCC2)ccn1` [Compound 102, N-cyclobutyl-3-[(2,2-difluoro-1,3-benzodioxol-5-yl)amino]-1-(2-methyl-4-pyridinyl)-1H-pyrazole-5-acetamide] registered a melting point of 237.7 °C. Moreover, at hα7-wt nAChR [1], the EC50 was 240 nM. The PAM type at hα7-wt nAChR [2] is recorded as 2.

`CNC(=O)Cc1cc(Nc2cccc(OC(F)(F)F)c2)nn1-c1ccnc(C)c1` [Compound 111, N-methyl-1-(2-methyl-4-pyridinyl)-3-[[3-(trifluoromethoxy)phenyl]amino]-1H-pyrazole-5-acetamide] registered a melting point of 231.5 °C. In addition, at hα7-wt nAChR [1] (read-out: % Efficacy), the Emax came to 822%. On hα7-wt nAChR [1], the EC50 was 2290 nM. Further, on hα7-wt nAChR [2], the PAM type came to 2.

For the compound `Cc1cc(-n2nc(Nc3cccc(C(F)(F)F)c3)cc2CC(=O)NCC2CC2)ccn1` [Compound 47, N-(cyclopropylmethyl)-1-(2-methyl-4-pyridinyl)-3-[[3-(trifluoromethyl)phenyl]amino]-1H-pyrazole-5-acetamide], the melting point was determined as 207.5 °C. Besides, the EC50 on hα7-wt nAChR [1] was 219 nM. Moreover, on hα7-wt nAChR [2], the PAM type is 4.

Turning to `Cc1cc(-n2nc(Nc3cccc(OC(F)(F)F)c3)cc2CC(=O)NC(C)C)cc(C)n1` [Compound 116, 1-(2,6-dimethyl-4-pyridinyl)-N-(1-methylethyl)-3-[[3-(trifluoromethoxy)phenyl]amino]-1H-pyrazole-5-acetamide], the melting point amounted to 229.1 °C. Besides, the EC50 at hα7-wt nAChR [1] is 245 nM. Besides, on hα7-wt nAChR [2], the PAM type was found to be 2.

`CCNC(=O)Cc1cc(Nc2cccc(Cl)c2F)nn1-c1ccnc(C)c1` [Compound 73, 3-[(3-chloro-2-fluorophenyl)amino]-N-ethyl-1-(2-methyl-4-pyridinyl)-1H-pyrazole-5-acetamide]: the melting point turned out to be 205.1 °C. Moreover, the EC50 at hα7-wt nAChR [1] was 1260 nM. Also, at hα7-wt nAChR [2], the PAM type is 3.
